Earlier results on one compound are cited in patent US11559485B2 (NANOCOPOEIA, LLC, priority 2020, dated 2023).

SMILES strings stand for the structures. Structures can show the parent of a compound that is named as a salt.

For the data set the following is noted: low/moderate aqueous solubility and low permeability.

Turning to `Cc1cn(-c2cc(NC(=O)c3ccc(C)c(Nc4nccc(-c5cccnc5)n4)c3)cc(C(F)(F)F)c2)cn1` [Nilotinib monohydrochloride monohydrate], the BCS class result is “Class IV”.
